The results in this text go back to patent publication US20090137549A1, “Novel compounds useful for the treatment of degenerative & inflamatory diseases” (priority 2006, published 2009).

This assay concerns the target PDE1A (Homo sapiens, UniProt P54750). Briefly: PDE1A dose response, Cyclic Nucleotide Phosphodiesterase Assay Kit from Biomol (colorimetric). The class given is biochemical. The conditions noted are these: purified PDE1A enzyme, 100 μM cAMP. A digest of the protocol:
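Purified PDE1A hydrolysed 100 μM cAMP with 5′-nucleotidase in Tris 20 mM pH 7.4 with calmodulin, Ca2+, Mg2+, 45 min at 37° C. Released phosphate read by malachite-green absorbance at 615 nm. Duplicate 8-point 1/3 dilutions from 20 μM, 1% DMSO; 10 μM vardenafil defined 100% inhibition.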
For orientation: IC50 means the concentration needed to halve the response being measured. For `Cc1nn(C2CCCCC2)c2nc(C3CN(C(=O)Nc4ccccc4)C3)[nH]c(=O)c12` [Example 14, 3-(1-cyclohexyl-3-methyl-4-oxo-4,5-dihydro-1H-pyrazolo[3,4-d]pyrimidin-6-yl)-N-phenylazetidine-1-carboxamide], the IC50 lay within 0.001 to 0.1 µM.

Take `O=c1[nH]c(C2CN(c3nc4ccccc4o3)C2)nc2c1cnn2C1CCCCC1` [Example 130, 6-(1-(benzo[d]oxazol-2-yl)azetidin-3-yl)-1-cyclohexyl-1H-pyrazolo[3,4-d]pyrimidin-4(5H)-one]: the IC50 fell in the range of 0.101 to 0.5 µM.

Compound `CC(=O)Nc1ccc(C(=O)N2CCCC(c3nc4c(c(C)nn4C4CCCCC4)c(=O)[nH]3)C2)cc1` (stereo not drawn) [Example 113, N-(4-(3-(1-cyclohexyl-3-methyl-4-oxo-4,5-dihydro-1H-pyrazolo[3,4-d]pyrimidin-6-yl)piperidine-1-carbonyl)phenyl)acetamide] gave an IC50 of 1 to 1.5 µM.

As for `CN(C)c1cccc(C(=O)N2CCCC(c3nc4c(cnn4C4CCCCC4)c(=O)[nH]3)C2)c1` (stereo not drawn) [Example 45, 1-cyclohexyl-6-(1-(3-(dimethylamino)benzoyl)piperidin-3-yl)-1H-pyrazolo[3,4-d]pyrimidin-4(5H)-one], the IC50 fell in the range of 0.101 to 0.5 µM.

For `O=c1[nH]c(C2CN(c3ccc(C(F)(F)F)cc3)C2)nc2c1cnn2C1CCCCC1` [Example 152, 1-cyclohexyl-6-(1-(4-(trifluoromethyl)phenyl)azetidin-3-yl)-1H-pyrazolo[3,4-d]pyrimidin-4(5H)-one], the IC50 fell in the range of 0.101 to 0.5 µM.

In turn, `CC(C)(C)n1ncc2c(=O)[nH]c(C3CN(C(=O)OCC4CCCCC4)C3)nc21` [Example 117, cyclohexylmethyl 3-(1-tert-butyl-4-oxo-4,5-dihydro-1H-pyrazolo[3,4-d]pyrimidin-6-yl)azetidine-1-carboxylate] returned an IC50 of 0.001 to 0.1 µM.

Compound `O=c1[nH]c(C2CN(c3nnc(-c4ccccc4)o3)C2)nc2c1cnn2C1CCCCC1` [Example 133, 1-cyclohexyl-6-(1-(5-phenyl-1,3,4-oxadiazol-2-yl)azetidin-3-yl)-1H-pyrazolo[3,4-d]pyrimidin-4(5H)-one] showed an IC50 of 0.101 to 0.5 µM.

Take `O=C(NC1CC1)N1CC(c2nc3c(cnn3C3CCCCC3)c(=O)[nH]2)C1` [Example 69, 3-(1-cyclohexyl-4-oxo-4,5-dihydro-1H-pyrazolo[3,4-d]pyrimidin-6-yl)-N-cyclopropylazetidine-1-carboxamide]: the IC50 is 0.101 to 0.5 µM.

The compound `COc1ccc(S(=O)(=O)N2CCCC(c3nc4c(c(C)nn4C4CCCCC4)c(=O)[nH]3)C2)cc1` (stereo not drawn) [Example 56, 1-cyclohexyl-6-(1-(4-methoxyphenylsulfonyl)piperidin-3-yl)-3-methyl-1H-pyrazolo[3,4-d]pyrimidin-4(5H)-one] displayed an IC50 of 0.101 to 0.5 µM.

Take `O=C(NC1CCCCC1)N1CC(c2nc3c(cnn3C3CCCCC3)c(=O)[nH]2)C1` [Example 23, N-cyclohexyl-3-(1-cyclohexyl-4-oxo-4,5-dihydro-1H-pyrazolo[3,4-d]pyrimidin-6-yl)azetidine-1-carboxamide]: the 50% inhibitory concentration (IC50) lay in the range of 0.001 to 0.1 µM.

The compound `CC(=O)c1ccccc1N1CC(c2nc3c(cnn3C3CCCCC3)c(=O)[nH]2)C1` [Example 151, 6-(1-(2-acetoylphenyl)azetidin-3-yl)-1-cyclohexyl-1H-pyrazolo[3,4-d]pyrimidin-4(5H)-one] showed an IC50 of 0.101 to 0.5 µM.

Regarding `CC(C)N1CC(n2ncc3c(=O)[nH]c(C4CN(C(=O)Nc5ccc(F)cc5)C4)nc32)C1` [Example 108, N-(4-fluorophenyl)-3-(1-(1-isopropylazetidin-3-yl)-4-oxo-4,5-dihydro-1H-pyrazolo[3,4-d]pyrimidin-6-yl)azetidine-1-carboxamide], the IC50 fell in the range of 1 to 1.5 µM.

As for `Cc1nn(C2CCCCC2)c2nc(C3CCCN(C(=O)c4cccc(NS(C)(=O)=O)c4)C3)[nH]c(=O)c12` (stereo not drawn) [Example 64, N-(3-(3-(1-cyclohexyl-3-methyl-4-oxo-4,5-dihydro-1H-pyrazolo[3,4-d]pyrimidin-6-yl)piperidine-1-carbonyl)phenyl)methanesulfonamide], the IC50 fell in the range of 0.101 to 0.5 µM.

Compound `O=c1[nH]c(C2CN(c3nc(CN4CCOCC4)cs3)C2)nc2c1cnn2C1CCCCC1` [Example 142, 1-cyclohexyl-6-(1-(4-(morpholinomethyl)thiazol-2-yl)azetidin-3-yl)-1H-pyrazolo[3,4-d]pyrimidin-4(5H)-one] showed an IC50 of 0.101 to 0.5 µM.

Compound `CC(C)N1CCN(Cc2csc(N3CC(c4nc5c(cnn5C5CCCCC5)c(=O)[nH]4)C3)n2)CC1` [Example 143, 1-cyclohexyl-6-(1-(4-((4-isopropylpiperazin-1-yl)methyl)thiazol-2-yl)azetidin-3-yl)-1H-pyrazolo[3,4-d]pyrimidin-4(5H)-one] had an IC50 of 1 to 1.5 µM.

Regarding `Nc1cc(N2CC(c3nc4c(cnn4C4CCCCC4)c(=O)[nH]3)C2)ccc1[N+](=O)[O-]` [Example 146, 6-(1-(3-amino-4-nitrophenyl)azetidin-3-yl)-1-cyclohexyl-1H-pyrazolo[3,4-d]pyrimidin-4(5H)-one], the IC50 is 0.001 to 0.1 µM.

The compound `Cc1nn(C2CCCCC2)c2nc(C3CN(C(=O)Nc4ccc(F)cc4)C3)[nH]c(=O)c12` [Example 21, 3-(1-cyclohexyl-3-methyl-4-oxo-4,5-dihydro-1H-pyrazolo[3,4-d]pyrimidin-6-yl)-N-(4-fluorophenyl)azetidine-1-carboxamide] displayed an IC50 of 0.001 to 0.1 µM.

As to `O=C(NCCC(F)(F)F)N1CC(c2nc3c(cnn3C3CCCCC3)c(=O)[nH]2)C1` [Example 43, 3-(1-cyclohexyl-4-oxo-4,5-dihydro-1H-pyrazolo[3,4-d]pyrimidin-6-yl)-N-(3,3,3-trifluoropropyl)azetidine-1-carboxamide], the IC50 lay in the range of 0.001 to 0.1 µM.

`CC(C)N1CCCC(NC(=O)N2CC(c3nc4c(cnn4C4CCCCC4)c(=O)[nH]3)C2)C1` (stereo not drawn) [Example 183, 3-(1-Cyclohexyl-4-oxo-4,5-dihydro-1H-pyrazolo[3,4-d]pyrimidin-6-yl)-azetidine-1-carboxylic acid (1-isopropyl-piperidin-3-yl)-amide] displayed a 50% inhibitory concentration (IC50) of 0.101 to 0.5 µM.

In turn, `O=C(NCc1ccc(Cl)c(Cl)c1)N1CC(c2nc3c(cnn3C3CCCCC3)c(=O)[nH]2)C1` [Example 37, 3-(1-cyclohexyl-4-oxo-4,5-dihydro-1H-pyrazolo[3,4-d]pyrimidin-6-yl)-N-(3,4-dichlorobenzyl)azetidine-1-carboxamide] yielded an IC50 of 0.001 to 0.1 µM.

The compound `COc1cccc(C(=O)N2CCCC(c3nc4c(c(C)nn4C4CCC4)c(=O)[nH]3)C2)c1` (stereo not drawn) [Example 78, 1-cyclobutyl-6-(1-(3-methoxybenzoyl)piperidin-3-yl)-3-methyl-1H-pyrazolo[3,4-d]pyrimidin-4(5H)-one] had an IC50 of 0.501 to 1 µM.

As to `O=C(Nc1ccc(N2CCOCC2)cc1)N1CC(c2nc3c(cnn3C3CCCCC3)c(=O)[nH]2)C1` [Example 10, 3-(1-cyclohexyl-4-oxo-4,5-dihydro-1H-pyrazolo[3,4-d]pyrimidin-6-yl)-N-(4-morpholinophenyl)azetidine-1-carboxamide], the IC50 is 0.001 to 0.1 µM.

Regarding `CC(C)(C)n1ncc2c(=O)[nH]c(C3CN(Cc4nc5ccccc5[nH]4)C3)nc21` [Example 175, 6-(1-((1H-Benzo[d]imidazol-2-yl)methyl)azetidin-3-yl)-1-tert-butyl-1H-pyrazolo[3,4-d]pyrimidin-4(5H)-one], the IC50 is 1 to 1.5 µM.

Compound `Cc1nn(C2CCCCC2)c2nc(C3CN(C(=O)NCc4ccccc4)C3)[nH]c(=O)c12` [Example 24, N-benzyl-3-(1-cyclohexyl-3-methyl-4-oxo-4,5-dihydro-1H-pyrazolo[3,4-d]pyrimidin-6-yl)azetidine-1-carboxamide] yielded an IC50 of 0.001 to 0.1 µM.
